Results reported in patent US10442803B2, “Tricyclic heterocycles as bet protein inhibitors” (Incyte Corporation, priority 2013, dated 2019).
Structures can show the parent of a compound that is named as a salt.

test system: KMS.12.BM cells; assay: KMS.12.BM cell viability assay; format: cell-based; conditions: 72 h; KMS.12.BM human myeloma cells, 3 days, Cell Titer-GLO ATP quantitation; read-out: KMS cellular IC50
Outline: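 IC50 derived from luminescent ATP quantitation (Cell Titer-GLO) of viable cells after 3-day compound treatment. KMS.12.BM human myeloma line seeded at 5000 cells/well in RPMI with 10% FBS.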

| Structure (SMILES) | IC50 |
| --- | --- |
| Cc1cc2c(cc(N[C@H]3CCN(C)[C@H](C)C3)c3nnc(C)n32)n1Cc1ccccc1 (racemic) [Example 225, 6-Benzyl-N-[(2R,4S)-1,2-dimethylpiperidin-4-yl]-1,7-dimethyl-6H-pyrrolo[2,3-e][1,2,4]triazolo[4,3-a]pyridin-4-amine and 6-Benzyl-N-[(2S,4R)-1,2-dimethylpiperidin-4-yl]-1,7-dimethyl-6H-pyrrolo[2,3-e][1,2,4]triazolo[4,3-a]pyridin-4-amine] | ≤ 1000 nM |
| Cc1cc2c(ccc3nnc(C)n32)n1CCc1ccccc1 [Example 6, 1,7-dimethyl-6-(2-phenylethyl)-6H-pyrrolo[2,3-e][1,2,4]triazolo[4,3-a]pyridine] | 1000 to 10000 nM |
| Cc1cc2c(cc(NC3CCN(C)CC3)c3nnc(C)n32)n1Cc1cccnc1 [Example 154, 1,7-dimethyl-N-(1-methylpiperidin-4-yl)-6-(pyridin-3-ylmethyl)-6H-pyrrolo[2,3-e][1,2,4]triazolo[4,3-a]pyridin-4-amine] | ≤ 1000 nM |
| Cc1cc2c(cc(NCC3CC3)c3nnc(C)n32)n1Cc1ccccc1 [Example 228, 6-Benzyl-N-(cyclopropylmethyl)-1,7-dimethyl-6H-pyrrolo[2,3-e][1,2,4]triazolo[4,3-a]pyridin-4-amine] | 1000 to 10000 nM |
| Cc1nnc2ccc3c(cc(-c4ccn(C5CN(S(=O)(=O)N(C)C)C5)n4)n3Cc3cccc(Cl)c3)n12 [Example 161, 3-{3-[6-(3-Chlorobenzyl)-1-methyl-6H-pyrrolo[2,3-e][1,2,4]triazolo[4,3-a]pyridin-7-yl]-1H-pyrazol-1-yl}-N,N-dimethylazetidine-1-sulfonamide bis(trifluoroacetate) salt] | ≤ 1000 nM |
| Cc1nnc2ccc3c(cc(-c4ccn(C5CN(C)C5)n4)n3Cc3cccc(Cl)c3)n12 [Example 180, 6-(3-Chlorobenzyl)-1-methyl-7-[1-(1-methylazetidin-3-yl)-1H-pyrazol-3-yl]-6H-pyrrolo[2,3-e][1,2,4]triazolo[4,3-a]pyridine bis(trifluoroacetate) salt] | ≤ 1000 nM |
| CC(=O)Nc1cc2c(cc(C)n2Cc2ccccc2)n2c(C)nnc12 [Example 266, N-(6-Benzyl-1,7-dimethyl-6H-pyrrolo[2,3-e][1,2,4]triazolo[4,3-a]pyridin-4-yl)acetamide] | ≤ 1000 nM |
| Cc1cc2c(cc(NC(N)=O)c3nnc(C)n32)n1Cc1ccc(F)cc1F [Example 236, 1-(6-(2,4-Difluorobenzyl)-1,7-dimethyl-6H-pyrrolo[2,3-e][1,2,4]triazolo[4,3-a]pyridin-4-yl)urea] | ≤ 1000 nM |
| Cc1nnc2ccc3c(cc(C(=O)NCCN4CCOCC4)n3Cc3cccc(Cl)c3)n12 [Example 119, 6-(3-Chlorobenzyl)-1-methyl-N-(2-morpholin-4-ylethyl)-6H-pyrrolo[2,3-e][1,2,4]triazolo[4,3-a]pyridine-7-carboxamide trifluoroacetate salt] | ≤ 1000 nM |
| Cc1cc2c(cc(NC(N)=O)c3nnc(C)n32)n1Cc1ccc(F)c(F)c1 [Example 234, 1-(6-(3,4-Difluorobenzyl)-1,7-dimethyl-6H-pyrrolo[2,3-e][1,2,4]triazolo[4,3-a]pyridin-4-yl)urea] | ≤ 1000 nM |
| Cc1cc2c(cc(NC(=O)C3CC3)c3nnc(C)n32)n1Cc1ccccc1 [Example 269, N-(6-Benzyl-1,7-dimethyl-6H-pyrrolo[2,3-e][1,2,4]triazolo[4,3-a]pyridin-4-yl)cyclopropanecarboxamide] | ≤ 1000 nM |
| Cc1cc2c(cc(N[C@H]3CCOC3)c3nnc(C)n32)n1Cc1ccccc1 [Example 148, 6-benzyl-1,7-dimethyl-N-[(3S)-tetrahydrofuran-3-yl]-6H-pyrrolo[2,3-e][1,2,4]triazolo[4,3-a]pyridin-4-amine] | 1000 to 10000 nM |
| Cc1cc2c(ccc3nnc(C)n32)n1Cc1ccccc1 [Example 2, 6-benzyl-1,7-dimethyl-6H-pyrrolo[2,3-e][1,2,4]triazolo[4,3-a]pyridine] | ≤ 1000 nM |
| Cc1cc2c(cc(NC(N)=O)c3nnc(C)n32)n1Cc1ccc(F)cc1 [Example 239, 1-(6-(4-Fluorobenzyl)-1,7-dimethyl-6H-pyrrolo[2,3-e][1,2,4]triazolo[4,3-a]pyridin-4-yl)urea] | ≤ 1000 nM |
